Results published in article PMC4159345, “PF-4708671 Activates AMPK Independently of p70S6K1 Inhibition” (PLoS ONE, 2014).

Assays:
[1] = test system: T1, mitochondrial respiratory chain Complex I; experiment: spectrophotometric NADH-CoQ reductase activity in isolated MEF mitochondria, single concentration of […]; format: biochemical, Mus musculus
T1 construct: gene Mtnd1; multi-subunit complex in mitochondria isolated from MEF

[2] = target: T1, mitochondrial respiratory chain Complex I; experiment: spectrophotometric rotenone-sensitive NADH-CoQ reductase activity in isolated MEF mitochondria; format: biochemical, Mus musculus

| SMILES | spectrophotometric NADH-CoQ reductase activity in isolated MEF mitochondria, sin [1] [mM] | IC50 [2] [µM] |
| --- | --- | --- |
| CN(C)C(=N)N=C(N)N [metformin] | 5 | – |
| CCc1cncnc1N1CCN(Cc2nc3cc(C(F)(F)F)ccc3[nH]2)CC1 [PF-4708671] | – | 5.2 |
